Data as given in ChEMBL document CHEMBL3352232, “Discovery of pyridyl sulfonamide 11-beta-hydroxysteroid dehydrogenase type 1 (11β-HSD1) inhibitors for the treatment of metabolic disorders” (Bioorg Med Chem Lett, 2014).
In brackets after ≈: the same amount, converted by molar mass.

Columns and labels:
[1] = target: 11-beta-hydroxysteroid dehydrogenase 1 (Homo sapiens, UniProt P28845); test: Inhibition of human 11-betaHSD1 by biochemical assay
[2] = Aqueous solubility of the compound; assay type: physicochemical
[3] = Stability in mouse liver microsomes assessed as compound remaining after 10 mins; assay type: ADME; details: read-out: Stability
[4] = Stability in human liver microsomes assessed as compound remaining after 10 mins; assay type: ADME; details: read-out: Stability
[5] = target: 11-beta-hydroxysteroid dehydrogenase 1 (Mus musculus, UniProt P50172); test: Inhibition of mouse 11-betaHSD1 by biochemical assay
Chain of 11-beta-hydroxysteroid dehydrogenase 1 (Mus musculus, UniProt P50172) (P50172 whole entry): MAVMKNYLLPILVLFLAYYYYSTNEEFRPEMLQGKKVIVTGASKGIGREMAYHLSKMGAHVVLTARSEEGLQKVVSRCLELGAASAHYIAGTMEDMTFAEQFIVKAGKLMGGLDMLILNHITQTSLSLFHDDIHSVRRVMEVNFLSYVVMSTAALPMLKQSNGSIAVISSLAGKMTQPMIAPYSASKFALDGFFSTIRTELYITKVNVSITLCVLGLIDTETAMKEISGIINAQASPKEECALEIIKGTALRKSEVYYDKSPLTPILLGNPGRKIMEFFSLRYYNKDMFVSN

[6] = Stability in rat liver microsomes assessed as compound remaining after 10 mins; assay type: ADME; details: read-out: Stability

Chain of 11-beta-hydroxysteroid dehydrogenase 1 (Homo sapiens, UniProt P28845) (P28845 whole entry): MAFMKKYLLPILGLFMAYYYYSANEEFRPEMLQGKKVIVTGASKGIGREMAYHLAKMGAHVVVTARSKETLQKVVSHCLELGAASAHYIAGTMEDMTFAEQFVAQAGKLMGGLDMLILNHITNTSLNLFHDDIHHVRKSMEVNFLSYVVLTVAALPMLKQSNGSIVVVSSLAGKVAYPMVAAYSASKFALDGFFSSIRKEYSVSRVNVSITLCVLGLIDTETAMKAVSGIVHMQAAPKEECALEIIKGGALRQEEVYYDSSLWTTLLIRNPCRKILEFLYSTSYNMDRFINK

| SMILES | IC50 [1] [µM] | solubility [2] [µg/mL] | remaining at 10 min [3] [%] | remaining at 10 min [4] [%] | IC50 [5] | remaining at 10 min [6] [%] |
| --- | --- | --- | --- | --- | --- | --- |
| CC1CCN(C(=O)c2ccc(CSc3ccc(Cl)cc3)cc2)CC1 | 0.16 |  |  |  |  |  |
| N#Cc1ccc(-c2cccc(S(=O)(=O)N3CCC(N4CCOCC4)C3)n2)cc1 (centres undefined) | 0.16 | 14 (≈ 35.1 µM) |  |  |  |  |
| CC1CCN(S(=O)(=O)c2cccc(-c3cccc(Cl)c3)n2)CC1 | 0.31 | 1 (≈ 2.85 µM) |  |  |  |  |
| CC1CCN(S(=O)(=O)c2cccc(-c3ccc(Cl)cc3)n2)CC1 | 0.055 | 1 (≈ 2.85 µM) |  |  |  |  |
| CC1CCN(S(=O)(=O)c2cccc(-c3ccc(C#N)cc3)n2)CC1 | 0.049 | 2 (≈ 5.86 µM) |  |  |  |  |
| N#Cc1ccc(-c2cccc(S(=O)(=O)N3CCC(C4CCCCC4)CC3)n2)cc1 | 0.009 | < 1 |  |  |  |  |
| N#Cc1ccc(-c2cccc(S(=O)(=O)N3CCC(N4CCCC4)CC3)n2)cc1 | 0.98 | 270 (≈ 681 µM) |  |  |  |  |
| O=S(=O)(c1cccc(-c2ccccc2)n1)N1CCC(N2CCOCC2)CC1 | 0.03 | 48 (≈ 124 µM) | 7 | 62 | Not Active | 4 |
